Here are results for four compounds from US4322346A, “5H-2,3-Benzodiazepine derivatives” (priority 1978, dated 1982).

Assay type in all cases: in vivo
Assay [1] deals with mice. Put plainly: General behaviour of mice. As to conditions: 100 mg/kg i.p. and, resp., 200 mg/kg p.o., SMA = spontaneous motor activity. As to the method:
These compounds decrease the spontaneous motor activity and potentiate the effect of narcotics.
(§1) The tests were performed on mice. In the examination of the general behaviour the animals were treated intraperitoneally with 100 mg/kg or orally with 200 mg/kg of the compound in question. The fighting behaviour test was performed according to the method of Tedeschi et al. (J. Pharm. Exp. Ther. 25, 28 /1959/). The observations concerning the general behaviour of the animals and the ED50 values obtained in the fighting behaviour test are summarized in Table 1. In these tests 1-(3,4-dimethoxyphenyl)-4-methyl-5-ethyl-7,8-dimethoxy-5H-2,3-benzodiazepine (Grandaxin) was applied as reference substance.

Assay [2] deals with mice. Put plainly: Fighting behaviour test on mice (method of Tedeschi et al.). Conditions: for ED50: Mus musculus, po, mice; for "Fighting behaviour" test on mice, relative activity: relative to Grandaxin (1.0), from ED50 p.o. As to the method: as §1
The subject of assay [3] is mice. The experiment in a line: Narcosis potentiating activity on mice (sodium hexobarbital narcosis). As to conditions: for Narcosis potentiating activity on mice, Relative activity: relative to Grandaxin (1.0). As to the method: When studying the narcosis potentiating effect, the benzodiazepine compounds were administered to mice in oral dosages of 12.5, 25, 50 or 100 mg/kg, and 30 minutes later 50 mg/kg of sodium hexobarbital were injected intravenously into the animals. The percentage prolongation of the narcosis period, compared to the value observed in the control group treated with sodium hexobarbital alone, was calculated. In these tests Grandaxin was applied again as reference substance.

Setting [4] is: Mus musculus, po, 12.5 mg/kg p.o., 30 minutes before 50 mg/kg sodium hexobarbital i.v., prolongation vs control, read-out: Narcosis potentiating activity on mice, Increase, %.
The mark [5] stands for this setting: Mus musculus, po, 25 mg/kg p.o., 30 minutes before 50 mg/kg sodium hexobarbital i.v., prolongation vs control, read-out: Narcosis potentiating activity on mice, Increase, %.

Take `COc1cc2c(cc1OC)C(c1cccc(C(F)(F)F)c1)=NN=C(C)C2` [Example 44, 1-(3-Trifluoromethyl-phenyl)-4-methyl-7,8-dimethoxy-5H-2,3-benzodiazepine]: the General behaviour result in assay [1] is “Strong decrease of SMA”. Moreover, in assay [2], it took a dose of 22 mg/kg to reach the 50% effect level (ED50) and the “"Fighting behaviour" test on mice, relative activity” value was 2.9. Also, in assay [3] (12.5 mg/kg p.o.), the “Narcosis potentiating activity on mice, Relative activity” value came to 8.82. Besides, the “Narcosis potentiating activity on mice, Relative activity” value in assay [3] (25 mg/kg p.o.) amounted to 3.63. Also, the change in vivo at 12.5 mg/kg in assay [3] (setting [4]) amounted to 150%. For the same compound, the change in vivo at 25 mg/kg in assay [3] (setting [5]) was 294%.
On to `COc1cc2c(cc1OC)C(c1ccco1)=NN=C(C)C2` [Example 45, 1-(2-Furyl)-4-methyl-7,8-dimethoxy-5H-2,3-benzodiazepine], for which the General behaviour entry in assay [1] is given as “Decrease of SMA”. For the same compound, in assay [2], the ED50 stood at 50 mg/kg and the “"Fighting behaviour" test on mice, relative activity” value was 1.3. The “Narcosis potentiating activity on mice, Relative activity” value in assay [3] (25 mg/kg p.o.) was found to be 3.09. For the same compound, the change in vivo at 25 mg/kg in assay [3] (setting [5]) was determined as 250%.
For the compound `COc1cccc(C2=NN=C(C)Cc3cc(OC)c(OC)cc32)c1` [Example 46, 1-(3-Methoxyphenyl)-4-methyl-7,8-dimethoxy-5H-2,3-benzodiazepine], the General behaviour result in assay [1] is given as “Strong decrease of SMA”. In addition, in assay [2], the ED50 stood at 50 mg/kg and the “"Fighting behaviour" test on mice, relative activity” value worked out at 1.3. For the same compound, in assay [3] (12.5 mg/kg p.o.), the “Narcosis potentiating activity on mice, Relative activity” value was 8.24. In addition, the “Narcosis potentiating activity on mice, Relative activity” value in assay [3] (25 mg/kg p.o.) turned out to be 3.70. In assay [3] (setting [4]), the change in vivo at 12.5 mg/kg turned out to be 140%. The change in vivo at 25 mg/kg in assay [3] (setting [5]) turned out to be 300%.
In the case of `CCC1C(C)=NN=C(c2ccc(OC)c(OC)c2)c2cc(OC)c(OC)cc21` (stereo not drawn) [Grandaxin, 1-(3,4-dimethoxyphenyl)-4-methyl-5-ethyl-7,8-dimethoxy-5H-2,3-benzodiazepine, reference compound], the General behaviour result in assay [1] is listed as “Decrease of SMA”. In assay [2], this compound returned an ED50 of 64 mg/kg. The “"Fighting behaviour" test on mice, relative activity” value in assay [2] was determined as 1.0. Besides, the “Narcosis potentiating activity on mice, Relative activity” value in assay [3] (12.5 mg/kg p.o.), in assay [3] (25 mg/kg p.o.), in assay [3] (50 mg/kg p.o.) and in assay [3] (100 mg/kg p.o.) was 1.0 each time. The change in vivo at 12.5 mg/kg in assay [3] (setting [4]) was found to be 17%. In addition, the change in vivo at 25 mg/kg in assay [3] (setting [5]) was 81%. Moreover, the change in vivo at 50 mg/kg in assay [3] (Mus musculus, po, 50 mg/kg p.o., 30 minutes before 50 mg/kg sodium hexobarbital i.v., prolongation vs control, read-out: Narcosis potentiating activity on mice, Increase, %) was 114%. For the same compound, the change in vivo at 100 mg/kg in assay [3] (Mus musculus, po, 100 mg/kg p.o., 30 minutes before 50 mg/kg sodium hexobarbital i.v., prolongation vs control, read-out: Narcosis potentiating activity on mice, Increase, %) amounted to 239%.

For orientation: ED50 means the midpoint of the dose-response relation.
